Data from ChEMBL document CHEMBL1201862, “PubChem BioAssay data set” (2004).
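48-hour exposure; five concentrations; linearly interpolated endpoints. GI50: concentration for 50% inhibition of growth.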 Active and inactive are the calls of the source. Rule as the data show it: active = GI50 up to about 1.1 µM and inactive = higher.

How the values were obtained:
Assay in all cases: NCI-60 cell line screen, 48 h
SNB-75 = test system: SNB-75
SN12C = test system: SN12C
U-251 = test system: U-251
MCF7 = test system: MCF7
MDA-MB-231 = test system: MDA-MB-231
TK-10 = test system: TK-10
HCC 2998 = test system: HCC 2998
COLO 205 = test system: COLO 205
T47D = test system: T47D
RXF 393 = test system: RXF 393
RPMI-8226 = test system: RPMI-8226
SK-MEL-5 = test system: SK-MEL-5
BT-549 = test system: BT-549
M14 = test system: M14
OVCAR-8 = test system: OVCAR-8
OVCAR-3 = test system: OVCAR-3
SK-OV-3 = test system: SK-OV-3
SW-620 = test system: SW-620
MDA-MB-435 = test system: MDA-MB-435

Compound	GI50 (SNB-75)	GI50 (SN12C)	GI50 (U-251)	GI50 (MCF7)	GI50 (MDA-MB-231)	GI50 (TK-10)	GI50 (HCC 2998)	GI50 (COLO 205)	GI50 (T47D)	GI50 (RXF 393)	GI50 (RPMI-8226)	GI50 (SK-MEL-5)	GI50 (BT-549)	GI50 (M14)	GI50 (OVCAR-8)	GI50 (OVCAR-3)	GI50 (SK-OV-3)	GI50 (SW-620)	GI50 (MDA-MB-435)
Clc1ccc(Nc2nnc(CNc3ccc(-c4nnc(Nc5ccc(Cl)cc5)o4)cc3)o2)cc1	24.8 µM (inactive)	16 µM (inactive)	8.71 µM (inactive)	10.9 µM (inactive)	7.93 µM (inactive)	14 µM (inactive)	5.14 µM (inactive)	19.8 µM (inactive)	24.6 µM (inactive)	18.5 µM (inactive)	9.42 µM (inactive)	15.9 µM (inactive)	17.7 µM (inactive)	17.1 µM (inactive)	8.87 µM (inactive)	11.2 µM (inactive)	22.6 µM (inactive)	20.9 µM (inactive)	12.9 µM (inactive)
OC1(c2ccccc2)c2ccccc2N=C2NCCN21 (configuration not stated)	91.4 µM (inactive)	82.8 µM (inactive)	91.8 µM (inactive)	63.1 µM (inactive)	> 100 µM (inactive)	37.4 µM (inactive)	16.3 µM (inactive)	32.9 µM (inactive)	65.6 µM (inactive)	82.6 µM (inactive)	11.1 µM (inactive)	37.6 µM (inactive)	> 100 µM (inactive)	50.6 µM (inactive)	> 100 µM (inactive)	> 100 µM (inactive)	> 100 µM (inactive)	84.7 µM (inactive)	> 100 µM (inactive)
CC(=O)OC1CN2CCC1CC2 (configuration not stated) [ACECLIDINE]		> 100 µM (inactive)	> 100 µM (inactive)	> 100 µM (inactive)	> 100 µM (inactive)	> 100 µM (inactive)	> 100 µM (inactive)	> 100 µM (inactive)	> 100 µM (inactive)	> 100 µM (inactive)	> 100 µM (inactive)	> 100 µM (inactive)	> 100 µM (inactive)	> 100 µM (inactive)	> 100 µM (inactive)	> 100 µM (inactive)	> 100 µM (inactive)	> 100 µM (inactive)	> 100 µM (inactive)
COc1ccc2nc3cc([N+](=O)[O-])ccc3c(NNc3ccc([N+](=O)[O-])cc3)c2c1	67.9 µM (inactive)	31.5 µM (inactive)	20.8 µM (inactive)	4.01 µM (inactive)	44 µM (inactive)	2.46 µM (inactive)	11.1 µM (inactive)	17.2 µM (inactive)	37.6 µM (inactive)	44.1 µM (inactive)	18.7 µM (inactive)	19.8 µM (inactive)	43.1 µM (inactive)	43.4 µM (inactive)	> 58.1 µM (inactive)	22.4 µM (inactive)	98.4 µM (inactive)	9.02 µM (inactive)	31.6 µM (inactive)
CC1=NN(c2nc(N)nc(COCc3nc(N)nc(N4N=C(C)CC4(C)C)n3)n2)C(C)(C)C1	> 100 µM (inactive)	> 100 µM (inactive)	> 100 µM (inactive)	> 100 µM (inactive)	> 100 µM (inactive)	> 100 µM (inactive)	> 100 µM (inactive)	> 100 µM (inactive)	> 100 µM (inactive)	> 100 µM (inactive)	> 100 µM (inactive)	> 100 µM (inactive)	> 100 µM (inactive)	> 100 µM (inactive)	> 100 µM (inactive)	> 100 µM (inactive)	> 100 µM (inactive)	> 100 µM (inactive)	> 100 µM (inactive)
O=c1[nH]c2nc3ccccc3c(=O)n2/c1=C/c1cccs1	20.5 µM (inactive)	> 100 µM (inactive)	> 100 µM (inactive)	> 100 µM (inactive)	> 100 µM (inactive)	> 100 µM (inactive)	> 100 µM (inactive)	> 100 µM (inactive)	69.7 µM (inactive)	> 100 µM (inactive)	> 100 µM (inactive)	> 100 µM (inactive)	> 100 µM (inactive)	> 100 µM (inactive)	> 100 µM (inactive)	> 100 µM (inactive)	> 100 µM (inactive)	> 100 µM (inactive)	> 100 µM (inactive)
O=C(Nc1nncs1)NS(=O)(=O)n1c(=S)sc2ccccc21	> 100 µM (inactive)	> 100 µM (inactive)	> 100 µM (inactive)	> 100 µM (inactive)	> 100 µM (inactive)	> 100 µM (inactive)	> 100 µM (inactive)	> 100 µM (inactive)	88.9 µM (inactive)	> 100 µM (inactive)	> 100 µM (inactive)	> 100 µM (inactive)	> 100 µM (inactive)	> 100 µM (inactive)	> 100 µM (inactive)	> 100 µM (inactive)	> 100 µM (inactive)	> 100 µM (inactive)	> 100 µM (inactive)
CCCNC(=O)CCC(C)[C@H]1CCC2C3C(C[C@H](OC(C)=O)[C@@]21C)[C@@]1(C)CCC2(C[C@H]1C[C@H]3OC(C)=O)OOC1(CCC(C)CC1)OO2 (some centres not stated)	23 µM (inactive)	43.6 µM (inactive)	14.8 µM (inactive)	34.7 µM (inactive)	29.1 µM (inactive)	28.7 µM (inactive)	40.1 µM (inactive)	14.8 µM (inactive)	15.9 µM (inactive)	50 µM (inactive)	3.65 µM (inactive)	14.6 µM (inactive)	27.1 µM (inactive)	26.4 µM (inactive)	19.5 µM (inactive)	4.78 µM (inactive)	60.5 µM (inactive)		18.9 µM (inactive)
CCOC(=O)CC1Nc2ccccc2C12CCc1c([nH]c3ccccc13)C2C(=O)OCC (configuration not stated)	0.0728 µM (active)	24.7 µM (inactive)	48.5 µM (inactive)	13.1 µM (inactive)	22.9 µM (inactive)	32.5 µM (inactive)	84.9 µM (inactive)	5.12 µM (inactive)	10.4 µM (inactive)	5.79 µM (inactive)	2.77 µM (inactive)	14.8 µM (inactive)	> 100 µM (inactive)	30.5 µM (inactive)	> 100 µM (inactive)	22.2 µM (inactive)	6.4 µM (inactive)	6.87 µM (inactive)	4.79 µM (inactive)
O=C(CSc1ncccn1)N/N=C/c1ccccc1OCc1ccccc1	21.5 µM (inactive)	27.2 µM (inactive)	26.8 µM (inactive)	17.6 µM (inactive)	30.9 µM (inactive)	23.4 µM (inactive)	27.8 µM (inactive)	19.2 µM (inactive)	24.8 µM (inactive)	21.9 µM (inactive)	19.5 µM (inactive)	14.8 µM (inactive)	25 µM (inactive)	29.2 µM (inactive)	28.7 µM (inactive)	16.4 µM (inactive)	37.6 µM (inactive)	29.6 µM (inactive)	4.33 µM (inactive)
CCNC(=S)Nc1c(C#N)c2n(c1C(=O)OCC)CCCCC2	> 100 µM (inactive)		> 100 µM (inactive)	> 100 µM (inactive)	> 100 µM (inactive)	> 100 µM (inactive)	> 100 µM (inactive)	> 100 µM (inactive)	> 100 µM (inactive)	33.1 µM (inactive)	71.3 µM (inactive)	> 100 µM (inactive)	30.9 µM (inactive)	> 100 µM (inactive)	> 100 µM (inactive)		> 100 µM (inactive)	> 100 µM (inactive)	> 100 µM (inactive)
OC(c1cccnc1)C(F)(F)c1nc2ccccc2o1 (configuration not stated)	> 100 µM (inactive)		> 100 µM (inactive)	> 100 µM (inactive)	> 100 µM (inactive)	> 100 µM (inactive)	> 100 µM (inactive)	> 100 µM (inactive)	> 100 µM (inactive)	> 100 µM (inactive)	> 100 µM (inactive)	> 100 µM (inactive)	> 100 µM (inactive)		> 100 µM (inactive)			> 100 µM (inactive)	> 100 µM (inactive)
C1=Nc2sc3c(c2C2=NCCN12)CCCC3	18.9 µM (inactive)		21.4 µM (inactive)	18.3 µM (inactive)	14.2 µM (inactive)	16.6 µM (inactive)	11.8 µM (inactive)	23.3 µM (inactive)	17.7 µM (inactive)	25 µM (inactive)	20.8 µM (inactive)	18 µM (inactive)	15.2 µM (inactive)		17.1 µM (inactive)	17.6 µM (inactive)		21 µM (inactive)	18.5 µM (inactive)
Clc1ccc(Cc2nc3cc4ccccc4cc3[nH]2)cc1Cl	17.3 µM (inactive)	24 µM (inactive)	15.5 µM (inactive)	16.2 µM (inactive)	16.6 µM (inactive)	19.4 µM (inactive)	18.5 µM (inactive)	18.5 µM (inactive)	12.2 µM (inactive)	16.4 µM (inactive)	31.3 µM (inactive)	3.93 µM (inactive)	16 µM (inactive)	26.2 µM (inactive)	20.1 µM (inactive)	22.8 µM (inactive)		17.4 µM (inactive)	15 µM (inactive)
COC1/C=C\C=C(/C)C(=O)NC2=CC(=O)C(O)=C(CC(C)CC(OC)C(O)C(C)/C=C(\C)C1OC(N)=O)C2=O (configuration not stated)		0.0446 µM (active)	1.03 µM (active)	0.0826 µM (active)	0.366 µM (active)	0.438 µM (active)	1.4 µM (inactive)	0.0422 µM (active)	7.05 µM (inactive)	0.136 µM (active)	0.0789 µM (active)	0.859 µM (active)	40.5 µM (inactive)	0.56 µM (active)	0.351 µM (active)	0.325 µM (active)	3.59 µM (inactive)	0.0158 µM (active)	0.0537 µM (active)
